Experimental data published in patent US20260049072A1, “HETEROCYCLIC COMPOUND FOR INDUCING DEGRADATION OF MUTANT KRAS PROTEIN” (Astellas Pharma Inc., priority 2022, published 2026).

Tested on: PA-TU-8902 cells
Experiment: Non-anchorage-dependent cell growth inhibition (spheroid 3D culture), PA-TU-8902
Format: cell-based, human
Conditions: Homo sapiens, PaTu 8902, 144 h; KRAS G12V mutant-positive, 3D spheroid, six days, CellTiter-Glo 2.0; read-out: PA-TU-8902 IC50
Experimental: Test Example 3: Evaluation of Non-Anchorage-Dependent Cell Growth Inhibitory Activity on Human KRAS G12V Mutant-Positive Pancreatic Cancer Line PA-TU-8902, Human KRAS G12D Mutant-Positive Pancreatic Cancer Line AsPC-1 or Human KRAS G12C Mutant-Positive Pancreatic Cancer Line MIA PaCa-2
The non-anchorage-dependent cell growth inhibitory activities of subject compounds were evaluated by spheroid 3D cell culture.
PA-TU-8902 cells, AsPC-1 cells or MIA PaCa-2 cells (RIKEN BRC, RCB2094) were seeded at 36 µL/well on a low-cell-adhesive round bottom 384-well plate (Prime Surface: from Sumitomo Bakelite) to give 5×10^2 cells per well. The PA-TU-8902 cells were under the same conditions as in Test Example 1-1, and the AsPC-1 cells were under the same conditions as in Test Example 1-2. For the MIA PaCa-2 cells, RPMI-1640 medium containing 10% fetal bovine serum was used in the presence of 5% CO2 at 37° C.
The next day, the subject compounds (6-9 points having final concentrations in the range of 3 μM to 0.3 nM) and DMSO, which was the solvent for the subject compounds, as a negative control were diluted 100-fold with a fresh medium and were each added at 4 μL per well. After culturing in the presence of 5% CO2 at 37° C. for six days, CellTiter-Glo 2.0 (from Promega) was added at 20 μL per well. After stirring with a plate mixer (from FINEPCR) at normal temperature for an hour, the luminescent signals were measured with ARVO X3 (from PerkinElmer).
With the signaling value in treatment with DMSO taken as 0% inhibition and with the signaling value in the medium alone without cells taken as 100% inhibition, the 50% inhibition values (IC50) were calculated by Sigmoid-Emax model nonlinear regression analysis.

Q: CO[C@@H](C)COc1nc(NC2CN(C(=O)O[C@H]3C[C@@H](N(C)C)C3)C2)c2cc(C3CC3)c(-c3c(C)c(F)cc4[nH]ncc34)c(OCc3ccc(-c4cn([C@H](C(=O)N5C[C@H](O)C[C@H]5C(=O)N[C@@H](CO)c5ccc(-c6scnc6C)nc5)C(C)C)nn4)cc3)c2n1 (atropisomer, axis not shown) [Example 3] was tested. Which IC50 did it give?
A: Its IC50 is 160 nM.

Q: CO[C@@H](C)COc1cc(OC2CN(C(=O)N3CC[C@@H](N(C)C)C3)C2)c2cc(C3CC3)c(-c3c(C)c(F)cc4[nH]ncc34)c(OCc3ccc(-c4cn([C@H](C(=O)N5C[C@H](O)C[C@H]5C(=O)N[C@@H](CO)c5ccc(-n6cncn6)cc5)C(C)C)nn4)cc3)c2n1 (atropisomer, axis not shown) [Example 7] was tested. Which IC50 did it give?
A: Its IC50 is 81 nM.

Q: How did the IC50 turn out when CO[C@@H](C)COc1cc(OC2CN(C(=O)N3CC(CN(C)C)C3)C2)c2cc(C3CC3)c(-c3c(C)c(F)cc4[nH]ncc34)c(OCc3ccc(-c4cn([C@H](C(=O)N5C[C@H](O)C[C@H]5C(=O)N[C@@H](CO)c5ccc(N6CCOC6=O)cc5)C(C)C)nn4)cc3)c2n1 (atropisomer, axis not shown) [Example 8] was run?
A: Its IC50 is 102 nM.

Q: COC(C)(C)COc1cc(OC2CN(C(=O)N[C@H]3C[C@@H](N(C)C)C3)C2)c2cc(C3CC3)c(-c3c(C)c(F)cc4[nH]ncc34)c(OCc3ccc(-c4cn([C@H](C(=O)N5C[C@H](O)C[C@H]5C(=O)N[C@@H](CO)c5ccc(-n6cncn6)cc5)C(C)C)nn4)cc3)c2n1 (atropisomer, axis not shown) [Example 10] was tested. Which IC50 did it give?
A: The IC50 was 69 nM.

Q: With CO[C@@H](C)COc1nc(OC2CN(C(=O)NCCN3CCCC3)C2)c2cc(C3CC3)c(-c3c(C)c(F)cc4[nH]ncc34)c(OCc3ccc(-c4cn([C@H](C(=O)N5C[C@H](O)C[C@H]5C(=O)N[C@@H](CO)c5ccc(-c6scnc6C)cc5)C(C)C)nn4)cc3)c2n1 (atropisomer, axis not shown) [Example 22] as the compound, how does the IC50 read?
A: Its IC50 is 65 nM.

Q: How did the IC50 turn out when CO[C@@H](C)COc1nc(N(C)C2CN(C(=O)CCCN(C)C)C2)c2cc(C3CC3)c(-c3c(C)c(F)cc4[nH]ncc34)c(OCc3ccc(-c4cn([C@H](C(=O)N5C[C@H](O)C[C@H]5C(=O)N[C@@H](CO)c5ccc(-c6scnc6C)cc5)C(C)C)nn4)cc3)c2n1 (atropisomer, axis not shown) [Example 24] was run?
A: The IC50 was 125 nM.

Q: CO[C@@H](C)COc1nc(NC2CN(C(=O)N3CCN(C)CC3)C2)c2cc(C3CC3)c(-c3c(C)c(F)cc4[nH]ncc34)c(OCc3ccc(-c4cn([C@H](C(=O)N5C[C@H](O)C[C@H]5C(=O)N[C@@H](CO)c5ccc(-n6cncn6)cc5)C(C)C)nn4)cc3)c2n1 (atropisomer, axis not shown) [Example 27] was tested. Which IC50 did it give?
A: Its IC50 is 122 nM.

Q: Cc1ncsc1-c1ccc([C@H](CO)NC(=O)[C@@H]2C[C@@H](O)CN2C(=O)[C@H](C(C)C)n2cc(-c3ccc(COc4c(-c5c(C)c(F)cc6[nH]ncc56)c(C5CC5)cc5c(OC6CN(C(=O)NCCN(C)C)C6)nc(OC6CCN(CC(F)F)CC6)nc45)cc3)nn2)cc1 (atropisomer, axis not shown) [Example 31] was tested. Which IC50 did it give?
A: Its IC50 is 67 nM.

Q: With Cc1c(F)cc2[nH]ncc2c1-c1c(C2CC2)cc2c(NC3CN(C(=O)NCCN(C)C)C3)nc(OC[C@@H]3CCCO3)nc2c1OCc1ccc(-c2cn([C@H](C(=O)N3C[C@H](O)C[C@H]3C(=O)N[C@@H](CO)c3ccc(-n4cncn4)cc3)C(C)C)nn2)cc1 (atropisomer, axis not shown) [Example 32] as the compound, how does the IC50 read?
A: Its IC50 is 105 nM.

Q: How did the IC50 turn out when Cc1ncsc1-c1ccc([C@H](CO)NC(=O)[C@@H]2C[C@@H](O)CN2C(=O)[C@H](C(C)C)n2cc(-c3ccc(COc4c(-c5c(C)c(F)cc6[nH]ncc56)c(C5CC5)cc5c(N(C)C6CN(C(=O)O[C@H]7CCN(C)C7)C6)nc(OC6CCOCC6)nc45)cc3)nn2)cc1 (atropisomer, axis not shown) [Example 33] was run?
A: The IC50 was 103 nM.

Q: CO[C@@H](C)COc1nc(N2CC[C@H]2C(N)=O)c2cc(C3CC3)c(-c3c(C)c(F)cc4[nH]ncc34)c(OCc3ccc(-c4cn([C@H](C(=O)N5C[C@H](O)C[C@H]5C(=O)N[C@@H](CN(C)C)c5ccc(-c6scnc6C)cc5)C(C)C)nn4)cc3)c2n1 (atropisomer, axis not shown) [Example 37] was tested. Which IC50 did it give?
A: Its IC50 is 78 nM.

Q: CO[C@@H](C)COc1nc(NC2CN(C(=O)OCCN(C)C)C2)c2cc(C3CC3)c(-c3c(C)c(F)cc4[nH]ncc34)c(OCc3ccc(-c4cn([C@H](C(=O)N5C[C@H](O)C[C@H]5C(=O)N[C@@H](CO)c5ccc(-c6scnc6C)cc5)C(C)C)nn4)cc3)c2n1 (atropisomer, axis not shown; (M)) [Example 34, 2-(dimethylamino)ethyl 3-({(7M)-6-cyclopropyl-7-(6-fluoro-5-methyl-H-indazol-4-yl)-8-{[4-(1-{(2S)-1-[(2S,4R)-4-hydroxy-2-({(1R)-2-hydroxy-1-[4-(4-methyl-1,3-thiazol-5-yl)phenyl]ethyl}carbamoyl)pyrrolidin-1-yl]-3-methyl-1-oxobutan-2-yl}-1H-1,2,3-triazol-4-yl)phenyl]methoxy}-2-[(2S)-2-methoxypropoxy]quinazolin-4-yl}amino)azetidine-1-carboxylate] was tested. Which IC50 did it give?
A: Its IC50 is 109 nM.

Q: CC[C@H](C)[C@@H](C(=O)N1C[C@H](O)C[C@H]1C(=O)N[C@@H](CO)c1ccc(-c2scnc2C)cc1)n1cc(-c2ccc(COc3c(-c4c(C)c(F)cc5[nH]ncc45)c(C4CC4)cc4c(O[C@H]5CCN(C(=O)NCCN(C)C)C5)nc(OC[C@H](C)OC)nc34)cc2)nn1 (single isomer, unassigned) [Example 28] was tested. Which IC50 did it give?
A: The IC50 was 159 nM.

Q: Which IC50 does the source give for Cc1ncsc1-c1ccc([C@H](CO)NC(=O)[C@@H]2C[C@@H](O)CN2C(=O)[C@H](C(C)C)n2cc(-c3ccc(COc4c(-c5c(C)c(F)cc6[nH]ncc56)c(C5CC5)cc5c(OC6CN(C(=O)NCCO)C6)nc(OC6CCOCC6)nc45)cc3)nn2)cc1 [Example 16] here?
A: The IC50 was 261 nM.

Q: For Cc1c(F)cc2[nH]ncc2c1-c1c(C2CC2)cc2c(OC3CN(C(=O)NCCN(C)C)C3)nc(OC3CCOCC3)nc2c1OCc1ccc(-c2cn([C@H](C(=O)N3C[C@H](O)C[C@H]3C(=O)N[C@@H](CO)c3ccc(-n4cccn4)cc3)C(C)C)nn2)cc1 [Example 30], which IC50 is on record?
A: Its IC50 is 235 nM.

Q: How did the IC50 turn out when Cc1ncsc1-c1ccc([C@H](CO)NC(=O)[C@@H]2C[C@@H](O)CN2C(=O)[C@H](C(C)C)n2cc(-c3ccc(COc4c(-c5c(C)c(F)cc6[nH]ncc56)c(C5CC5)cc5c(OC6CN(C(=O)NCCN(C)C)C6)nc(OCC(C)(C)CN(C)C)nc45)cc3)nn2)cc1 [Example 36] was run?
A: The IC50 was 143 nM.

Q: For Cc1ncsc1-c1ccc([C@H](CO)NC(=O)[C@@H]2C[C@@H](O)CN2C(=O)[C@H](C(C)C)n2cc(-c3ccc(COc4c(-c5c(C)c(F)cc6[nH]ncc56)c(C5CC5)cc5c(N6CC(C#N)C6)nc(OC[C@@H]6CCN(C)C6)nc45)cc3)nn2)cc1 [Example 38], which IC50 is on record?
A: Its IC50 is 177 nM.

Q: Cc1ncsc1-c1ccc([C@H](CCO)NC(=O)[C@@H]2C[C@@H](O)CN2C(=O)[C@H](C(C)C)n2cc(-c3ccc(COc4c(-c5c(C)c(F)cc6[nH]ncc56)c(C5CC5)cc5c(NC6CN(C(=O)NCCN(C)C)C6)nc(OC6CCOCC6)nc45)cc3)nn2)cc1 [Example 39, (4R)-1-[(2S)-2-(4-{4-[({(7M)-6-cyclopropyl-4-[(1-{[2-(dimethylamino)ethyl]carbamoyl}azetidin-3-yl)oxy]-7-(6-fluoro-5-methyl-1H-indazol-4-yl)-2-[(oxan-4-yl)oxy]quinazolin-8-yl}oxy)methyl]phenyl}-1H-1,2,3-triazol-1-yl)-3-methylbutanoyl]-4-hydroxy-N-{(1S)-3-hydroxy-1-[4-(4-methyl-1,3-thiazol-5-yl)phenyl]propyl}-L-prolinamide] was tested. Which IC50 did it give?
A: The IC50 was 52 nM.

Same assay, conditions: KRAS G12V mutant-positive, 3D spheroid, six days, CellTiter-Glo 2.0; read-out: PA-TU-8902 IC50

Q: With CO[C@@H](C)COc1cc(OC2CN(C(=O)NCCN(C)C)C2)c2cc(C3CC3)c(-c3c(C)c(F)cc4[nH]ncc34)c(OCc3ccc(-c4cn([C@H](C(=O)N5C[C@H](O)C[C@H]5C(=O)N[C@@H](CO)c5ccc(-c6scnc6C)cc5)C(C)C)nn4)cc3)c2n1 [Example 43, (4R)-1-[(2S)-2-(4-{4-[({(7M)-6-cyclopropyl-4-[(1-{[2-(dimethylamino)ethyl]carbamoyl}azetidin-3-yl)oxy]-7-(6-fluoro-5-methyl-1H-indazol-4-yl)-2-[(2S)-2-methoxypropoxy]quinolin-8-yl}oxy)methyl]phenyl}-1H-1,2,3-triazol-1-yl)-3-methylbutanoyl]-4-hydroxy-N-{(1R)-2-hydroxy-1-[4-(4-methyl-1,3-thiazol-5-yl)phenyl]ethyl}-L-prolinamide] as the compound, how does the IC50 read?
A: The IC50 was 61 nM.
